# Laboratory results reported in patent publication US20250197423A1, “RAS INHIBITORS” (Revolution Medicines, Inc., priority 2022, published 2025).
# Legend:
# [1] = tested on: SW1573; details: Canon et al. 2019; cited from earlier work
# [2] = from CO[C@@H](C)c1ncccc1-c1c(CC(C)(C)CO)c2cc(C3=CCCN(C[C@H](NC(=O)OC(C)(C)C)C(=O)N4CCC[C@@H](C(=O)O)N4)C3)ccc2n1CC(F)(F)F; ester bond; 18-membered ring; EDCI/HOBt/DIEA; DCM; 12.5 mM; 25.0 °C; 16.0 h; 3 steps
smiles,measurement,setting,value
C=CC(=O)N1CCN(c2nc(=O)n(-c3c(C)ccnc3C(C)C)c3nc(-c4c(O)cccc4F)c(F)cc23)[C@@H](C)C1 [AMG510],sensitivity of cell line to inhibitor,[1],insensitive
CO[C@@H](C)c1ncccc1-c1c2c3cc(ccc3n1CC(F)(F)F)C1=CCCN(C1)C[C@H](NC(=O)OC(C)(C)C)C(=O)N1CCC[C@H](N1)C(=O)OCC(C)(C)C2,"ring closure, isolated yield",[2],63.7%
